Data as given in US20010049097A1 (priority 1999, published 2001).

How the values were obtained:
[1] = molecular target: T1, mutant T7 Y639F polymerase (Escherichia phage T7, UniProt P00573, Y639F); format: biochemical, T7 bacteriophage; settings: for effect on nucleotide incorporation: reactions containing 4 rNTPs and no non-canonical nucleotides; for concentration found to increase rate of Y639RNAP-catalyzed transcript extension: more than one rNTP replaced by a non-canonical nucleoside triphosphate; for concentration in excess of which generally inhibitory of activity: reaction with 4 rNTPs and plasmid templates
T1 construct: made in house; host or cells: E. coli BL21 (protease-deficient strain), plasmid pDPT7
Experimental: In general, transcription reaction mixtures comprised about 40 mM Tris-HCl or 40 mM Tris-Acetate pH 8.0, 5 mM DTT, 5-15 mM MgCl2, 0.1 mCi/ml of alpha-^32P GTP, and various combinations of rNTPs and dNTPs at initial concentrations of 0.5 mM and 1.0 mM, respectively. The reaction mixtures included supercoiled or PvuI-linearized pT75 DNA (10^−8 M) as the template and mutant T7 Y639F polymerase (10^−7 M). Reactions were typically conducted in 50 microliter reaction volumes and incubated at 37° C. Aliquots were removed after 5, 10, and 20 minutes of incubation and the reactions were quenched by adding a solution containing 95% formamide, 20 mM EDTA, 0.01% xylene cyanol. The reaction products were resolved by electrophoresis on denaturing gels containing 6% acrylamide, 0.6% bis-acrylamide, 6 M urea, 1×TBE. The gel was analyzed using a Molecular Dynamics Phosphorimager to determine the rates of incorporation of radioactive GTP into specific transcripts.
To evaluate the effect of A-form stabilizing compounds on polyamines on transcript extension by a mutant T7 RNAP, the activity of the RNAP was evaluated using standard transcription conditions (15 mM MgCl2, 40 mM Tris-HCl pH 8.0, 1 mM EDTA, and 5 mM DTT), or standard transcription reaction conditions plus varying concentrations of ethanol, methanol, trifuoro acteic acid, cobalt hexamine, spermine, or spermidine.
In addition to evaluating A-form stabilizing compounds, we examined the effects of varying the concentration of Mg^2+ and Mn^2+, substituting acetate for chloride as the main reaction counteranion, adding 0.1% tween-20, and adding pyrophosphatase.
With reference to FIG. 1A, reactions in lanes labeled ‘M’ were carried out with wild type polymerase, 4 rNTPs, and either Pvu I- or Hind III-restricted pT75 to generate RNA markers ˜579 or ˜59 bases in length, respectively. Values below each gel lane give the relative rates of synthesis of runoff or long (>˜600 base) transcripts on linearized or supercoiled templates, respectively, normalized to a value of 100 for the 4 rNTP reactions. FIG. 1A compares the relative activities of Y639F in typical polymerase reaction conditions (15 mM MgCl2, 40 mM Tris-HCl pH 8.0, 1 mM EDTA, and 5 mM DTT) and in a modified reaction mixture (40 mM Tris-acetate pH 8.0, 5 mM DTT, 1 mM EDTA, 10 mM Mg-acetate, 0.5 mM MnCl2, 8 mM spermidine, and 1 U/μl pyrophosphatase) in reactions having various combinations of rNTPs and dNTPs with supercoiled or linearized templates.
With reference to FIG. 1B, transcripts were synthesized using Hind III-cut pT75 as the template with 2′-NH2- or 2′-F NTPs as indicated replacing the corresponding rNTPs in the reaction. Reactions were conducted with 8 mM or 0 mM spermidine, as indicated. FIG. 1B compares the activity of Y639F in the presence or absence of spermidine, in reactions with 4 rNTPs or different combinations of rNTPs and 2′-F- or 2′-NH2-NTPs.

Y639F T7RNAP = Y639F T7RNAP (Escherichia phage T7, UniProt P00573, Y639F); settings: 42 bp template
Y639F T7RNAP, sequence (P00573 whole entry Y639F): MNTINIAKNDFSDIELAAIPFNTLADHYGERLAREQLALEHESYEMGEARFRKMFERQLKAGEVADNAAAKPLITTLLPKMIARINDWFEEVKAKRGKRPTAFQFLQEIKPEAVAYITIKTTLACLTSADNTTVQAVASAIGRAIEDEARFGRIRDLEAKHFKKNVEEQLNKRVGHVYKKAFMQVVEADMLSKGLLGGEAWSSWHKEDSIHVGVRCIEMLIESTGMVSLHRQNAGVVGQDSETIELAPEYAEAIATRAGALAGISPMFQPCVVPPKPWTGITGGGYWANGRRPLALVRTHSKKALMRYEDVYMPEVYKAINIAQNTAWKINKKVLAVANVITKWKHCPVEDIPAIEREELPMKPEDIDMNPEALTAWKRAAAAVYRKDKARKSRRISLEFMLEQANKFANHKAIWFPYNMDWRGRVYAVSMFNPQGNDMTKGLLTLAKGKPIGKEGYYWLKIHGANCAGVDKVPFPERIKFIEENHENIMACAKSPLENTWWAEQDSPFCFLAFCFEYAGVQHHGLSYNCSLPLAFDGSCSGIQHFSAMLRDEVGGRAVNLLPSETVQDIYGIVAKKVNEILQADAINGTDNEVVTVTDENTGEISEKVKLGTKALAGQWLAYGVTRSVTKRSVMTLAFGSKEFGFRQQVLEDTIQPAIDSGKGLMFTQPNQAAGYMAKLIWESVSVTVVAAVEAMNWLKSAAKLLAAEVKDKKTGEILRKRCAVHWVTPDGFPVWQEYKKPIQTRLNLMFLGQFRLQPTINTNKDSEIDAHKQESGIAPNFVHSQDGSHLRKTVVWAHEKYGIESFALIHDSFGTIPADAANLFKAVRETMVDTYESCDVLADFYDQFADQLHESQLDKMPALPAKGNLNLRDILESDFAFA
Experimental: A 42 base-pair synthetic template carrying a consensus T7 promoter was tested for its effect on Y639F T7RNAP activity by measuring the synthesis of 25 base runoff transcripts in reaction mixtures containing 10 mM MgCl2, 40 mM Tris pH 8.0, 1 mM EDTA, 5 mM DTT, 0.5 mM MnCl2 and either 3 dNTP+rGTP or 4 rNTP reactions (FIG. 2A). […] The polymerase and T7 promoter were included at concentrations of about 10^−7 M. Reaction products were subjected to electrophoresis on denaturing gels containing 20% acrylamide, 2% bis-acrylamide, 6 M urea, 1×TBE.

T1 sequence (P00573 whole entry Y639F): as above

N.N.N.N.N.N.[Cl-].[Cl-].[Cl-].[Co+3] [cobalt, cobalt hexamine]
effect on nucleotide incorporation [1]: inhibited

O=C(O)C(F)(F)F [trifluoroacetic acid]
effect on nucleotide incorporation [1]: inhibited

CO [methanol]
effect on nucleotide incorporation [1]: inhibited

NCCCCNCCCN [spermidine]
concentration found to increase rate of Y639RNAP-catalyzed transcript extension [1]: at least 8 mM
concentration in excess of which generally inhibitory of activity [1]: > 10 mM
effect on nucleotide incorporation [1]: minimal effects at low concentrations and were inhibitory at high concentrations

CO[C@@H]1[C@H](O)[C@@H](COP(=O)(O)OP(=O)(O)OP(=O)(O)O)O[C@H]1n1cnc2c(=O)[nH]c(N)nc21 [2′-O-Me-GTP]
synthesis of 59 base runoff transcripts, lower than in reactions with 4 rNTPs ([1]; Hind-III linearized pT75, modified buffer, single rNTP replaced): eliminated synthesis of runoff transcripts altogether

NCCCNCCCCNCCCN [spermine]
concentration found to increase rate of Y639RNAP-catalyzed transcript extension [1]: at least 1.5 mM
concentration inhibiting transcription ([1]; plasmid pT75 template, all combinations of rNTPs and dNTPs): ≥ 4 mM
concentration in excess of which generally inhibitory of activity [1]: > 1 mM
effect on nucleotide incorporation [1]: minimal effects at low concentrations and were inhibitory at high concentrations
concentration optimum for stimulation of activity ([1]; reactions with non-canonical substrates (3 replaced), plasmid templates): 1 to 2 mM
runoff synthesis relative to 8 mM spermidine (Y639F T7RNAP; 1.6 mM spermine, 3 dNTPs): 2 fold
concentrations shown to be stimulatory (Y639F T7RNAP; reactions with 3 dNTPs): up to 13 mM

CCO [ethanol]
effect on nucleotide incorporation [1]: inhibited
